How the values were obtained:
[1] = system: galectins; conditions: cited from earlier work
[2] = molecular target: Galectin-3 (Homo sapiens, UniProt P17931); test: Fluorescence anisotropy assay, inhibition of galectin / fluorescein tagged saccharide probe interaction; conditions: compound as inhibitor of probe binding
Description: (§1) The affinity of Example 1-45 for galectins were determined by a fluorescence anisotropy assay where the compound was used as an inhibitor of the interaction between galectin and a fluorescein tagged saccharide probe as described Sörme, P., Kahl-Knutsson, B., Huflejt, M., Nilsson, U. J., and Leffler H. (2004) Fluorescence polarization as an analytical tool to evaluate galectin-ligand interactions. Anal. Biochem. 334: 36-47, (Sorme et al., 2004) and Monovalent interactions of Galectin-1 By Salomonsson, Emma; Larumbe, Amaia; Tejler, Johan; Tullberg, Erik; Rydberg, Hanna; Sundin, Anders; Khabut, Areej; Frejd, Torbjorn; Lobsanov, Yuri D.; Rini, James M.; et al, From Biochemistry (2010), 49(44), 9518-9532, (Salomonsson et al., 2010).

[3] = molecular target: Galectin-1 (Homo sapiens, UniProt P09382); test: as above; conditions: compound as inhibitor of probe binding
Description: as §1

[4] = system: MDR1; test: MDCK-MDR1 in vitro cell model of passage over Blood Brain Barrier; format: in vitro ADME; conditions: dog
[5] = system: MDCK-MDR1; test: as above; format: in vitro ADME; conditions: MDCK-MDR1, result in words
[6] = In vivo mouse pharmacokinetic experiment (plasma and brain)
Description: FIG. 1 compares the mean plasma levels after IV and PO administration
FIG. 2 compares the mean brain tissue concertation after IV and PO administration
The ratio between exposure of example 35 in brain compared to plasma is determined to AUCbrain/AUCplasma=0.19 after oral administration. (AUC=area under the curve)

[7] = MDCK-MDR1, first column, headed A > B
[8] = MDCK-MDR1, second column, also headed A > B

Chain of Galectin-1 (P09382 whole entry, species assumed): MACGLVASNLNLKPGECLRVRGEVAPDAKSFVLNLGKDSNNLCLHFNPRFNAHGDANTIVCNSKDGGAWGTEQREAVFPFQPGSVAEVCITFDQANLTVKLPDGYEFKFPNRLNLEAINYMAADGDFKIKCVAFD
Chain of Galectin-3 (P17931 whole entry, species assumed): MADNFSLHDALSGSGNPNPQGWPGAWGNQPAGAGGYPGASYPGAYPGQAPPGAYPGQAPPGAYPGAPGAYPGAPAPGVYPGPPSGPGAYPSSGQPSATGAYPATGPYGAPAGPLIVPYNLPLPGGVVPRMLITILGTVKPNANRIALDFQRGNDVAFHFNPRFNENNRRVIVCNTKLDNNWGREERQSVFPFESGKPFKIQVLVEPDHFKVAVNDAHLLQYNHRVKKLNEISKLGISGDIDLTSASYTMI

Structure (SMILES)	Kd [2] [µM]	Kd [3] [µM]	Papp [4, 7] [×10⁻⁶ cm/s]	Papp [4, 8] [×10⁻⁶ cm/s]	efflux and uptake in in vitro cell model of BBB passage [5]	systemic bioavailability ([6]; IV 1 mg/kg and PO 10 mg/kg, FIG. 1)	exposure in brain ([6]; IV 1 mg/kg and PO 10 mg/kg, FIG. 2)	Kp ([6]; brain (relative to plasma), after oral administration (PO 10 mg/kg), read-out: AUCbrain/AUCplasma)	affinity, times lower than lactose ([1]; relative to lactose)	Kd ([1]; reviewed by Leffler 2001, Leffler et al. 2004, read-out: Kd, all galectins) [µM]
O=C[C@H](O)[C@@H](O)[C@@H](O)[C@H](O)CO [D-galactose]									50-100 times	
OCC1O[C@H](Sc2cncc(Cl)c2)C(O)C(n2cc(-c3cc(F)c(Cl)c(F)c3)cn2)[C@H]1O (stereo partly drawn) [Example 2, 5-Chloropyridin-3-yl 3-[4-(4-chloro-3,5-difluorophenyl)-1H-1,2-pyrazol-1-yl]-3-deoxy-1-thio-α-D-galactopyranoside]	0.02	27.6	25	50	low or no efflux and high uptake					
OCC1O[C@H](Sc2cncc(Cl)c2)C(O)C(n2cc(-c3cc(F)c(F)c(F)c3)cn2)[C@H]1O (stereo partly drawn) [Example 3, 5-Chloropyridin-3-yl 3-deoxy-3-[4-(3,4,5-trifluorophenyl)-1H-1,2-pyrazol-1-yl]-1-thio-α-D-galactopyranoside]	0.028	12.8	14	39	low or no efflux and high uptake					
OCC1O[C@H](Sc2cncc(Br)c2)C(O)C(n2cc(-c3cc(F)c(Cl)c(F)c3)cn2)[C@H]1O (stereo partly drawn) [Example 6, 5-Bromopyridin-3-yl 3-[4-(4-chloro-3,5-difluorophenyl)-1H-1,2-pyrazol-1-yl]-3-deoxy-1-thio-α-D-galactopyranoside]	0.016	23	18	52	low or no efflux and high uptake					
N#Cc1ncc(Cl)cc1S[C@H]1OC(CO)[C@H](O)C(n2cc(-c3cc(F)c(F)c(F)c3)cn2)C1O (stereo partly drawn) [Example 12, 5-Chloro-2-cyanopyridin-3-yl 3-deoxy-3-[4-(3,4,5-trifluorophenyl)-1H-1,2-pyrazol-1-yl]-1-thio-α-D-galactopyranoside]	0.021	8.2	12	51	low or no efflux and high uptake					
N#Cc1ncc(Br)cc1S[C@H]1OC(CO)[C@H](O)C(n2cc(-c3cc(F)c(F)c(F)c3)cn2)C1O (stereo partly drawn) [Example 15, 5-Bromo-2-cyanopyridin-3-yl 3-deoxy-3-[4-(3,4,5-trifluorophenyl)-1H-1,2-pyrazol-1-yl]-1-thio-α-D-galactopyranoside]	0.011	4.8	12	53	low or no efflux and high uptake					
OCC1O[C@H](Sc2cncc(Cl)c2)C(O)C(n2cc(-c3ccc(Cl)c(F)c3)cn2)[C@H]1O (stereo partly drawn) [Example 17, 5-Chloropyridin-3-yl 3-[4-(4-chloro-3-fluorophenyl)-1H-1,2-pyrazol-1-yl]-3-deoxy-1-thio-α-D-galactopyranoside]	0.029	19.7	28	49	low or no efflux and high uptake					
COC1C(n2cc(-c3cc(F)c(F)c(F)c3)cn2)[C@@H](O)C(CO)O[C@@H]1Sc1cncc(Cl)c1 (stereo partly drawn) [Example 32, 5-Chloropyridin-3-yl 3-deoxy-3-[4-(3,4,5-trifluorophenyl)-1H-1,2-pyrazol-1-yl]-2-O-methyl-1-thio-α-D-galactopyranoside]	0.017	6.7	30	33	low or no efflux and high uptake					
COC1C(n2cc(-c3cc(F)c(F)c(F)c3)cn2)[C@@H](O)C(CO)O[C@@H]1Sc1cncc(Br)c1 (stereo partly drawn) [Example 33, 5-Bromopyridin-3-yl 3-deoxy-3-[4-(3,4,5-trifluorophenyl)-1H-1,2-pyrazol-1-yl]-2-O-methyl-1-thio-α-D-galactopyranoside]	0.022	3.6	34	23	low or no efflux and high uptake					
OC[C@H]1O[C@@H](O[C@H]2[C@H](O)[C@@H](O)C(O)O[C@@H]2CO)[C@H](O)[C@@H](O)[C@H]1O (stereo partly shown) [lactose]										500 to 1000

Further lines, with some results ahead:

Kd [2] [µM]	Kd [3] [µM]	Papp [4, 7] [×10⁻⁶ cm/s]	Papp [4, 8] [×10⁻⁶ cm/s]	efflux and uptake in in vitro cell model of BBB passage [5]	systemic bioavailability ([6]; IV 1 mg/kg and PO 10 mg/kg, FIG. 1)	exposure in brain ([6]; IV 1 mg/kg and PO 10 mg/kg, FIG. 2)	Kp ([6]; brain (relative to plasma), after oral administration (PO 10 mg/kg), read-out: AUCbrain/AUCplasma)	Structure (SMILES)	affinity, times lower than lactose ([1]; relative to lactose)	Kd ([1]; reviewed by Leffler 2001, Leffler et al. 2004, read-out: Kd, all galectins) [µM]
0.023	16.5	35	37	low or no efflux and high uptake				C#Cc1cncc(S[C@H]2OC(CO)[C@H](O)C(n3cc(-c4cc(F)c(F)c(F)c4)cn3)C2OC)c1 (stereo partly drawn) [Example 34, 5-Ethynylpyridin-3-yl 3-deoxy-3-[4-(3,4,5-trifluorophenyl)-1H-1,2-pyrazol-1-yl]-2-O-methyl-1-thio-α-D-galactopyranoside]		
0.014	3.1	23	35	low or no efflux and high uptake	excellent systemic bioavailability	good exposure in brain	0.19	COC1C(n2cc(-c3cc(F)c(F)c(F)c3)cn2)[C@@H](O)C(CO)O[C@@H]1Sc1cc(Cl)cnc1C#N (stereo partly drawn) [Example 35, 5-Chloro-2-cyanopyridin-3-yl 3-deoxy-3-[4-(3,4,5-trifluorophenyl)-1H-1,2-pyrazol-1-yl]-2-O-methyl-1-thio-α-D-galactopyranoside]		
2	> 100							OC[C@H]1O[C@H](Sc2ccc(Cl)c(Cl)c2)[C@H](O)[C@@H](c2nc(-c3cc(F)c(F)c(F)c3)cs2)[C@H]1O [Example 40, 3,4-Dichlorophenyl 3-deoxy-3-[4-(3,4,5-trifluorophenyl)-thiazol-2-yl]-1-thio-α-D-galactopyranoside]		
1.2	> 100							OC[C@H]1O[C@H](Sc2ccc(Cl)c(Cl)c2)[C@H](O)[C@@H](c2nnc(-c3cc(F)c(F)c(F)c3)o2)[C@H]1O [Example 41, 3,4-Dichlorophenyl 3-deoxy-3-[5-(3,4,5-trifluorophenyl)-1,3,4-oxadiazol-2-yl]-1-thio-α-D-galactopyranoside]		
63	0.18							COC1C(n2cc(-c3csc(O)n3)cn2)[C@@H](O)C(CO)O[C@@H]1Sc1ccc(Cl)c(Cl)c1 (stereo partly drawn) [Example 42, 3,4-Dichlorophenyl 3-deoxy-3-[4-(2-hydroxythiazol-4-yl)-1H-1,2-pyrazol-1-yl]-2-O-methyl-1-thio-α-D-galactopyranoside]		
11	2.1							COC1C(n2cc(-c3csc(N)n3)cn2)[C@@H](O)C(CO)O[C@@H]1Sc1ccc(Cl)c(Cl)c1 (stereo partly drawn) [Example 43, 3,4-Dichlorophenyl 3-[4-(2-aminothiazol-4-yl)-1H-1,2-pyrazol-1-yl]-3-deoxy-2-O-methyl-1-thio-α-D-galactopyranoside]		
0.04	50							COC1C(n2cc(-c3cc(F)c(Cl)c(F)c3)cn2)[C@@H](O)C(CO)O[C@@H]1Sc1cc(Cl)ccc1C#N (stereo partly drawn) [Example 44, 5-Chloro-2-cyanophenyl 3-[4-(4-chloro-3,5-difluorophenyl)-1H-1,2-pyrazol-1-yl]-3-deoxy-2-O-methyl-1-thio-α-D-galactopyranoside]		
0.03	8.5							COC1C(n2cc(-c3cc(F)c(F)c(F)c3)cn2)[C@@H](O)C(CO)O[C@@H]1Sc1cc(Cl)ccc1C#N (stereo partly drawn) [Example 45, 5-Chloro-2-cyanophenyl 3-deoxy-3-[4-(3,4,5-trifluorophenyl)-1H-1,2-pyrazol-1-yl]-2-O-methyl-1-thio-α-D-galactopyranoside]		
